One data set has as its target T1, core-MetECBDB (Dehalococcoides mccartyi, UniProt A0A916P3S8).
T1 construct: gene cbdbA481
To be noted: 2 mM D,L-homocysteine, 50 mM Tris/HCl pH 6.5, 150 mM NaCl, 10% glycerol, anoxic, 0.1 µM enzyme; Hill fit.

The target of a further data set is T2, tr-MetEEco (Escherichia coli, UniProt P25665).
T2 construct: gene metE; tandem-repeat MetE, full length, 753 residues, 85 kDa, recombinant in E. coli DH10B (pBAD30_MetE), anion exchange; source strain of the gene not in main text (K-12 likely)
T2 sequence (P25665 2-753): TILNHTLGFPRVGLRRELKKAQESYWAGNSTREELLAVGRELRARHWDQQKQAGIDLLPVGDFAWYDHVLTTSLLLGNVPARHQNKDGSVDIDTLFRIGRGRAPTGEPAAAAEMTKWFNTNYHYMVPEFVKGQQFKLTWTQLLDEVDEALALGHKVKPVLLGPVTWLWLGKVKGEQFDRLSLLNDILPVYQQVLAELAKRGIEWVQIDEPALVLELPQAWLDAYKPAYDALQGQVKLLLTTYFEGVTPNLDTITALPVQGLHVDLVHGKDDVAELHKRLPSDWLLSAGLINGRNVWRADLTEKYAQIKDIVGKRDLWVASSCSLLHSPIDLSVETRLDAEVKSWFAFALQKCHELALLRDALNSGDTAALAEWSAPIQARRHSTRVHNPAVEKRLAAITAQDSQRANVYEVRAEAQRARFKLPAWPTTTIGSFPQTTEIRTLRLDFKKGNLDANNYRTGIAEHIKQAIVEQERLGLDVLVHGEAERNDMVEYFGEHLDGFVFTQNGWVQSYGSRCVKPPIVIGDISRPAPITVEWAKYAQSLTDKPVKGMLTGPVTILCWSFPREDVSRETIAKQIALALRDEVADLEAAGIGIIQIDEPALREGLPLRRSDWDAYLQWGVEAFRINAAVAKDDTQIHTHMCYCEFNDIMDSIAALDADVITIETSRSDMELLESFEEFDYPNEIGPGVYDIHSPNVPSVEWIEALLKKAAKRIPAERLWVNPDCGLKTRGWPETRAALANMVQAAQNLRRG
As to the kind of experiment: HPLC and MS of products. It counts as biochemical. To be noted: 2 mM D,L-homocysteine, 150 µM 5-methyl-THF-Glu3, pH 7.2, 100 µM MgSO4, 100 µM ZnSO4, 10 mM DTT, 37 °C.

Substrate in the data set “purified protein”: NC(CCS)C(=O)O
The data set can be described thus: purified protein. The settings on record: 0.5 mM methylcob(III)alamin, 50 mM Tris/HCl pH 6.5, 150 mM NaCl, 10% glycerol, anoxic, 0.1 µM enzyme, racemate, enzyme taken as L-specific, Hill fit.

As a reminder, the Km is the substrate concentration at which the rate is half of its maximum. The term kcat denotes the maximal rate divided by the concentration of active sites.

`C.C/C1=C2/N[C@H]([C@H](CC(N)=O)[C@@]2(C)CCC(=O)NC[C@@H](C)OP(=O)(O)O[C@H]2[C@@H](O)[C@@H](n3cnc4cc(C)c(C)cc43)O[C@@H]2CO)[C@]2(C)N=C(/C(C)=C3N=C(/C=C4N=C1[C@@H](CCC(N)=O)C\4(C)C)[C@@H](CCC(N)=O)[C@]\3(C)CC(N)=O)[C@@H](CCC(N)=O)[C@]2(C)CC(N)=O.[Co]` [MeCbl(III), methylcob(III)alamin]: the Km at core-MetECBDB worked out at 236 ± 3 µM.

Turning to `NC(CCS)C(=O)O` (racemic) [D,L-homocysteine], the “HPLC and MS of products” value at tr-MetEEco was “in the presence of tr-MetEEco, methionine was formed”.

B1: core-MetECBDB (Dehalococcoides mccartyi CBDB1) (protein)
chain: MTKTDFYFLPTMIGSMPHTDPKAAVDIITHYLRDIPVWPQLPRRSYLEGMSAQFSQGLPGVNINQDKMWIEPNSGFEGELESLYQAYLDNDFNKFPIGVEYAAGLYELASRSNLSPKLVKGHITGPLTYCMSIKDPSGKDILYDEVLSDAATKLLKLKASWQEHFLKKICRNTIIFVDEPAMSAYGSAYLPLSREQVTGMFEEVFSGISGLKGVHCCGNTDWSILMDTSVDIINFDTYSYADSLAIYTDALQAFIKRGGAVAWGIVPTDEKALKEETAASLKDRLEAAMSHFDSKGLPFAELARHSLITPACGLGLKSLDAAERAPELLAELSALLRRKHGTV
Regarding B1, in the data set “purified protein”, the Km was 98 ± 0 µM and the kcat was approximately 60 s⁻¹.

The values are drawn from PMC7005905, “Identification and characterization of a bacterial core methionine synthase” (Scientific Reports, 2020).
